Reference: publication PMC8162404, “Proteomimetic surface fragments distinguish targets by function” (Chemical Science, 2020)
Where two headings read alike, the source gives them in different places.

Key:
Assay in all cases: Pull-down assay with immobilized protein and LSM libraries
CaM = target: T1, CaM (Bos taurus, UniProt P62157); type: binding, bovine; details: 1:2 stoichiometry assumed, read-out: Surface mapping KD (apparent)
T1 construct: made in house; host or cells: E. coli BL21 (DE3)
In short: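 His-tagged protein immobilized on Co-NTA resin, equilibrated 30 min at room temperature with LSM sublibraries (64 members, […]), equimolar protein to total probe. CaM buffer: 20 mM HEPES pH 7.4, 150 mM NaCl, 5 mM CaCl2. Bound fractions from HPLC-MS loss of unbound probe versus protein-free resin control; Kd derived.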

Gal-1 = target: T2, Gal-1 (Homo sapiens, UniProt P09382); type: binding; details: 1:1 binding assumed, read-out: Surface mapping KD (apparent)
T2 construct: made in house; host or cells: E. coli BL21(DE3)
T2 sequence (P09382 whole entry): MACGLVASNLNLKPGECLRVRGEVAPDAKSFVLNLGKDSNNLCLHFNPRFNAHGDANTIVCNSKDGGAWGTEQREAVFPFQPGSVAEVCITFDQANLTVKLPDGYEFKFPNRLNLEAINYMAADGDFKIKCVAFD
In short: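 His-tagged protein immobilized on Co-NTA resin (64 µM) in 20 mM HEPES pH 7.4, 150 mM NaCl, equilibrated 30 min at room temperature with foldamer LSM sublibraries at equimolar total concentration. Unbound fractions quantified by HPLC-MS versus protein-free resin control; apparent KD assumes 1:1 binding.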

S100A4 = target: T3, S100A4 (Homo sapiens, UniProt P26447); type: binding; details: 1:1 binding assumed, read-out: Surface mapping KD (apparent)
T3 construct: made in house; host or cells: Escherichia coli BL21(DE3)
T3 sequence (P26447 whole entry): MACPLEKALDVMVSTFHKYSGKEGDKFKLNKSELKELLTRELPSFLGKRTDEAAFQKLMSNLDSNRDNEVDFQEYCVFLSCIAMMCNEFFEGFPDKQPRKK
In short: (§1)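 Buffers were HEPES pH 7.4 with 150 mM NaCl, plus 1 mM TCEP and 1 mM CaCl2 (50 mM HEPES) for S100A4 and S100B, 1 mM TCEP for Gal-1, and no additive for RecQ-WH. Immobilized protein at 64 µM was equilibrated 30 min with the LSM sublibrary, and unbound probes were measured by LC-MS.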

S100B = target: T4, S100B (Homo sapiens, UniProt P04271); type: binding; details: 1:1 binding assumed, read-out: Surface mapping KD (apparent)
T4 construct: made in house; host or cells: Escherichia coli BL21(DE3)
T4 sequence (P04271 1-92): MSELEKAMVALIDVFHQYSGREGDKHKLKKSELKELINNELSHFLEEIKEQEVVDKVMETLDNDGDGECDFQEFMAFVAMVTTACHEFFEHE
In short: as §1

| SMILES | Kd (CaM; H12 library) | Kd (Gal-1; H12 library) | Kd (S100A4; H12 library) | Kd (S100B; H12 library) | Kd (CaM; H14 library) | Kd (Gal-1; H14 library) | Kd (S100A4; H14 library) | Kd (S100B; H14 library) |
| --- | --- | --- | --- | --- | --- | --- | --- | --- |
| NCCCC[C@@H](CC(=O)N[C@H]1CCC[C@@H]1C(=O)N[C@H]1CCC[C@@H]1C(=O)N[C@H](CC(=O)N[C@H]1CCC[C@@H]1C(=O)N[C@H]1CCC[C@@H]1C(N)=O)Cc1ccccc1)NC(=O)[C@H]1CCC[C@@H]1NC(=O)[C@H]1CCC[C@@H]1N [H12 KF] | 239 µM | 292 µM | 416 µM | 66 µM | – | – | – | – |
| CC(C)C[C@@H](CC(=O)N[C@H]1CCC[C@@H]1C(=O)N[C@H]1CCC[C@@H]1C(N)=O)NC(=O)[C@H]1CCC[C@@H]1NC(=O)[C@H]1CCC[C@@H]1NC(=O)C[C@@H](NC(=O)[C@H]1CCC[C@@H]1NC(=O)[C@H]1CCC[C@@H]1N)C(C)C [H12 VL] | 164 µM | 469 µM | 190 µM | 92 µM | – | – | – | – |
| CC[C@H](C)[C@@H](CC(=O)N[C@H]1CCC[C@@H]1C(=O)N[C@H]1CCC[C@@H]1C(=O)N[C@H](CC(=O)N[C@H]1CCC[C@@H]1C(=O)N[C@H]1CCC[C@@H]1C(N)=O)C(C)C)NC(=O)[C@H]1CCC[C@@H]1NC(=O)[C@H]1CCC[C@@H]1N [H12 IV] | 270 µM | 463 µM | 373 µM | 57 µM | – | – | – | – |
| CC(C)[C@@H](CC(=O)N[C@H]1CCC[C@@H]1C(=O)N[C@H]1CCC[C@@H]1C(N)=O)NC(=O)[C@H]1CCC[C@@H]1NC(=O)[C@H]1CCC[C@@H]1NC(=O)C[C@H](Cc1ccccc1)NC(=O)[C@H]1CCC[C@@H]1NC(=O)[C@H]1CCC[C@@H]1N [H12 FV] | 157 µM | 170 µM | 207 µM | 46 µM | – | – | – | – |
| CC[C@H](C)[C@@H](CC(=O)N[C@H]1CCC[C@@H]1C(=O)N[C@H]1CCC[C@@H]1C(N)=O)NC(=O)[C@H]1CCC[C@@H]1NC(=O)[C@H]1CCC[C@@H]1NC(=O)C[C@H](CCSC)NC(=O)[C@H]1CCC[C@@H]1NC(=O)[C@H]1CCC[C@@H]1N [H12 MI] | 101 µM | 281 µM | 358 µM | 54 µM | – | – | – | – |
| N=C(N)NCCC[C@@H](CC(=O)N[C@H]1CCC[C@@H]1C(=O)N[C@H]1CCC[C@@H]1C(=O)N[C@H](CC(=O)N[C@H]1CCC[C@@H]1C(=O)N[C@H]1CCC[C@@H]1C(N)=O)Cc1ccc(O)cc1)NC(=O)[C@H]1CCC[C@@H]1NC(=O)[C@H]1CCC[C@@H]1N [H12 RY] | 381 µM | 198 µM | 400 µM | 89 µM | – | – | – | – |
| CC(C)C[C@@H](CC(=O)N[C@H]1CCC[C@@H]1C(=O)N[C@H]1CCC[C@@H]1C(N)=O)NC(=O)[C@H]1CCC[C@@H]1NC(=O)[C@H]1CCC[C@@H]1NC(=O)C[C@H](Cc1ccccc1)NC(=O)[C@H]1CCC[C@@H]1NC(=O)[C@H]1CCC[C@@H]1N [H12 FL] | 205 µM | 114 µM | 83 µM | 14 µM | – | – | – | – |
| CC(C)[C@@H](CC(=O)N[C@H]1CCC[C@@H]1C(=O)N[C@H]1CCC[C@@H]1C(=O)N[C@H](CC(=O)N[C@H]1CCC[C@@H]1C(=O)N[C@H]1CCC[C@@H]1C(N)=O)Cc1ccc(O)cc1)NC(=O)[C@H]1CCC[C@@H]1NC(=O)[C@H]1CCC[C@@H]1N [H12 VY] | 247 µM | 413 µM | 392 µM | 210 µM | – | – | – | – |
| NC(=O)[C@H]1CCC[C@@H]1NC(=O)[C@H]1CCC[C@@H]1NC(=O)C[C@H](Cc1c[nH]c2ccccc12)NC(=O)[C@H]1CCC[C@@H]1NC(=O)[C@H]1CCC[C@@H]1NC(=O)C[C@H](Cc1ccccc1)NC(=O)[C@H]1CCC[C@@H]1NC(=O)[C@H]1CCC[C@@H]1N [H12 FW] | 134 µM | 136 µM | 75 µM | 10 µM | – | – | – | – |
| NC(=O)[C@H]1CCC[C@@H]1NC(=O)[C@H]1CCC[C@@H]1NC(=O)C[C@H](Cc1ccccc1)NC(=O)[C@H]1CCC[C@@H]1NC(=O)[C@H]1CCC[C@@H]1NC(=O)C[C@H](Cc1c[nH]c2ccccc12)NC(=O)[C@H]1CCC[C@@H]1NC(=O)[C@H]1CCC[C@@H]1N [H12 WF] | 9 µM | 117 µM | 135 µM | 7 µM | – | – | – | – |
| CC[C@H](C)[C@@H](CC(=O)N[C@H]1CCC[C@@H]1C(=O)N[C@H]1CCC[C@@H]1C(=O)N[C@H](CC(=O)N[C@H]1CCC[C@@H]1C(=O)N[C@H]1CCC[C@@H]1C(N)=O)Cc1c[nH]c2ccccc12)NC(=O)[C@H]1CCC[C@@H]1NC(=O)[C@H]1CCC[C@@H]1N [H12 IW] | 19 µM | 368 µM | 28 µM | 11 µM | – | – | – | – |
| NC(=O)[C@H]1CCC[C@@H]1NC(=O)[C@H]1CCC[C@@H]1NC(=O)C[C@H](Cc1ccccc1)NC(=O)[C@H]1CCC[C@@H]1NC(=O)[C@H]1CCC[C@@H]1NC(=O)C[C@H](Cc1ccccc1)NC(=O)[C@H]1CCC[C@@H]1NC(=O)[C@H]1CCC[C@@H]1N [H12 FF] | 21 µM | 130 µM | 125 µM | 14 µM | – | – | – | – |
| N=C(N)NCCC[C@@H](CC(=O)N[C@H]1CCC[C@@H]1C(=O)N[C@H]1CCC[C@@H]1C(=O)N[C@H](CC(=O)N[C@H]1CCC[C@@H]1C(=O)N[C@H]1CCC[C@@H]1C(N)=O)Cc1ccccc1)NC(=O)[C@H]1CCC[C@@H]1NC(=O)[C@H]1CCC[C@@H]1N [H12 RF] | 96 µM | 202 µM | 140 µM | 40 µM | – | – | – | – |
| CC[C@H](C)[C@@H](CC(=O)N[C@H]1CCC[C@@H]1C(=O)N[C@H]1CCC[C@@H]1C(N)=O)NC(=O)[C@H]1CCC[C@@H]1NC(=O)[C@H]1CCC[C@@H]1NC(=O)C[C@H](CCCNC(=N)N)NC(=O)[C@H]1CCC[C@@H]1NC(=O)[C@H]1CCC[C@@H]1N [H12 RI] | 252 µM | 194 µM | 245 µM | 56 µM | – | – | – | – |
| CC[C@H](C)[C@@H](CC(=O)N[C@H]1CCC[C@@H]1C(=O)N[C@H]1CCC[C@@H]1C(=O)N[C@H](CC(=O)N[C@H]1CCC[C@@H]1C(=O)N[C@H]1CCC[C@@H]1C(N)=O)Cc1ccccc1)NC(=O)[C@H]1CCC[C@@H]1NC(=O)[C@H]1CCC[C@@H]1N [H12 IF] | 28 µM | 376 µM | 32 µM | 22 µM | – | – | – | – |
| CC(C)C[C@@H](CC(=O)N[C@H]1CCC[C@@H]1C(=O)N[C@H]1CCC[C@@H]1C(N)=O)NC(=O)[C@H]1CCC[C@@H]1NC(=O)[C@H]1CCC[C@@H]1NC(=O)C[C@H](CC(C)C)NC(=O)[C@H]1CCC[C@@H]1NC(=O)[C@H]1CCC[C@@H]1N [H12 LL] | 67 µM | 415 µM | 131 µM | 46 µM | – | – | – | – |
| CC[C@H](C)[C@@H](CC(=O)N[C@H]1CCC[C@@H]1C(=O)N[C@H]1CCC[C@@H]1C(N)=O)NC(=O)[C@H]1CCC[C@@H]1NC(=O)[C@H]1CCC[C@@H]1NC(=O)C[C@H](Cc1c[nH]c2ccccc12)NC(=O)[C@H]1CCC[C@@H]1NC(=O)[C@H]1CCC[C@@H]1N [H12 WI] | 134 µM | 174 µM | 164 µM | 18 µM | – | – | – | – |
| CC(C)C[C@@H](CC(=O)N[C@H]1CCCC[C@@H]1C(=O)N[C@H]1CCCC[C@@H]1C(=O)N[C@@H](CCC(N)=O)CC(=O)N[C@H]1CCCC[C@@H]1C(N)=O)NC(=O)[C@H]1CCCC[C@@H]1N [H14 LQ] | – | – | – | – | 275 µM | 343 µM | 304 µM | 435 µM |
| CC[C@H](C)[C@@H](CC(=O)N[C@H]1CCC[C@@H]1C(=O)N[C@H]1CCC[C@@H]1C(N)=O)NC(=O)[C@H]1CCC[C@@H]1NC(=O)[C@H]1CCC[C@@H]1NC(=O)C[C@H](Cc1ccccc1)NC(=O)[C@H]1CCC[C@@H]1NC(=O)[C@H]1CCC[C@@H]1N [H12 FI] | 15 µM | 167 µM | 126 µM | 13 µM | – | – | – | – |
| CSCC[C@@H](CC(=O)N[C@H]1CCC[C@@H]1C(=O)N[C@H]1CCC[C@@H]1C(N)=O)NC(=O)[C@H]1CCC[C@@H]1NC(=O)[C@H]1CCC[C@@H]1NC(=O)C[C@H](CC(C)C)NC(=O)[C@H]1CCC[C@@H]1NC(=O)[C@H]1CCC[C@@H]1N [H12 LM] | 211 µM | 378 µM | 381 µM | 74 µM | – | – | – | – |
